Measurements as given in US6794396B2, “Substituted pyridines useful for inhibiting cholesteryl ester transfer protein activity” (Pharmacia Corporation, priority 1998, dated 2004).
Several values for one entry are separate records, joined by “and”; a condition that tells them apart may be missing. Equal entries are not always repeated.

Legend:
CETP [1] = assay: Inhibition of CETP activity in vivo: [3H]CE transfer from HDL to VLDL and LDL after intravenous injection; parameters: species or system golden Syrian hamster; details: hamsters, injection into jugular vein; for % Inhibition of CETP activity: versus control animals
From the text: Inhibition of CETP by a test compound can be determined by administering the compound to an animal by intravenous injection, determining the rate of transfer of tritium-labeled cholesteryl ester (^3H]CE) from HDL to VLDL and LDL particles, and comparing the rate of transfer with the rate of transfer observed in control animals.
Male golden Syrian hamsters were maintained on a diet of chow containing 0.24% cholesterol for at least two weeks prior to the study. Immediately before the experiment, animals were anesthetized with pentobarbital. Anesthesia was maintained throughout the experiment. Indwelling catheters were inserted into the jugular vein and carotid artery. Test compound, Dimethyl 5,5′-dithiobis[2-difluoromethyl)-4-(2-methylpropyl)-6-(trifluoromethyl)-3-pyridinecarboxylate] (Compound 181), was dissolved as a 80 mM stock solution in vehicle (2% ethanol: 98% PEG 400, Sigma Chemical Company, St. Louis, Mo., USA). At the start of the experiment all animals received 0.2 ml of a solution containing [^3H]-CE-HDL into the jugular vein. [^3H[-CE-HDL is a preparation of human HDL containing tritium-labeled cholesteryl ester, and was prepared according to the method of Glenn et al. (“Quantification of Cholesteryl Ester Transfer Protein (CETP): A) CETP Activity and B) Immunochemical Assay of CETP Protein,” Meth. Enzymol., Glenn and Melton (Meth. Enzymol., 263, 339-351 (1996) which is incorporated herein by reference).
After 2 minutes, the animals received 0.1 ml of the test solution injected into the jugular vein. Control animals received 0.1 ml of the vehicle solution without test compound. After 5 minutes, the first blood samples (0.5 ml) were taken from the carotid artery and collected in standard microtainer tubes containing ethylenediamine tetraacetic acid. Saline (0.5 ml) was injected to flush the catheter and replace blood volume. Subsequent blood samples were taken at two hours and four hours by the same method. Blood samples were mixed well and kept on ice until the completion of the experiment.
Plasma was obtained by centrifugation of the blood samples at 4° C. The plasma (50 μl) was then treated with 5 μl of precipitating reagent (dextran sulfate, 10 g/l; 0.5M magnesium chloride to remove VLDL/LDL. After centrifugation, the resulting supernatant (25 μl) containing the HDL was analyzed for radioactivity using a liquid scintillation counter. The percentage [^3H] CE transferred from HDL to LDL and VLDL (% transfer) was calculated based on the total radioactivity in equivalent serum samples before precipitation. Typically, the amount of transfer from HDL to LDL and VLDL in control animals was 30 to 35% after four hours. The polyethylene glycol vehicle was determined to have no effect on CETP activity in this model.
(Compound 181), and five animals that received vehicle. At two hours, mean values of 13% [^3H]-Ce transfer from HDL to LDL and VLDL were obtained for the control animals, but only 4.7% transfer for the animals receiving Compound 181. […] Student t-tests were performed to determine if the means for control and animals treated with Compound 181 were statistically different.

CETP [2] = target: T1, CETP (Homo sapiens, UniProt P11597); assay: CETP activity in vitro: transfer of [3H]CE from HDL donor to LDL acceptor particles; format: biochemical; details: Table 5, compounds of formula T-5; read-out: IC50
T1 construct: made in house; host or cells: CHO cells (serum-free conditioned medium)
T1 sequence (P11597 18-493): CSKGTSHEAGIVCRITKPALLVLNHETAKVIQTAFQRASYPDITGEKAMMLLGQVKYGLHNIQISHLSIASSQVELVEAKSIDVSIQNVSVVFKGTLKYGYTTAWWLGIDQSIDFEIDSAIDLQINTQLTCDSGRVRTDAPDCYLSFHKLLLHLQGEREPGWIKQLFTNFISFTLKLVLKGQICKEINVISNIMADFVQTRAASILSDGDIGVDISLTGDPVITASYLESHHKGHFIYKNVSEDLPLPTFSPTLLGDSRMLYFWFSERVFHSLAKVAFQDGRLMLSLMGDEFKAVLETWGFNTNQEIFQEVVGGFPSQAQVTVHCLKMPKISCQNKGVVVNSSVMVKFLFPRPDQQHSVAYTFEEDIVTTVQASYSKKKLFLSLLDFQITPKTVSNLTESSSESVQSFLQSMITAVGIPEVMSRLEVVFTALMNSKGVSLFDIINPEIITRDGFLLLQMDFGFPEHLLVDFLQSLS
Outline: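 Transfer of radiolabelled cholesteryl ester from HDL to LDL was followed over 2 h at 37 °C in Tris buffer (pH 7.4, 150 mM NaCl, 2 mM EDTA, 1% BSA), using CETP secreted by transfected CHO cells. Radioactivity in dextran sulfate/Mg-precipitated LDL was measured by scintillation counting, giving IC50.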

CETP [3] = assay: Ex vivo CETP activity assay on serum of chronically infused hamsters; format: in vivo, golden Syrian hamster
From the text: Chronic inhibition of CETP can be achieved by administration of Dimethyl 5,5′-dithiobis[2-difluoromethyl)-4-(2-methylpropyl)-6-(trifluoromethyl)-3-pyridinecarboxylate] (Compound 181) to hamsters using Alzet pump delivery of Compound 181 into the jugular veins of hamsters. Inhibition of CETP should lead to an increase in HDL cholesterol with a concomitant decrease in LDL cholesterol. This can be determined by filtering serum obtained at different time intervals after initiation of inhibitor infusion and quantitating the amount of cholesterol in the LDL and HDL peaks, respectively. In addition the activity of CETP in the serum can be assessed in an ex vivo CETP activity assay.
Serum cholesterol profiles were determined on pooled sera from each group. Total serum cholesterol and CETP activity were determined on individual serum samples. In hamsters administered Compound 181 chronically, there was a 30% reduction and 26% increase in LDL cholesterol and HDL cholesterol concentrations, respectively, compared to the vehicle group at Day 5. The decrease in LDL and increase in HDL persisted until Day 8 when the Alzet pump was exhausted. […] Therefore, it would appear that for every percent reduction in CETP activity determined by the ex vivo assay, there was a 2-3% decrease in LDL cholesterol or increase in HDL cholesterol concentrations.

## COC(=O)c1c(C(F)F)nc(C(F)(F)F)c(SSc2c(C(F)(F)F)nc(C(F)F)c(C(=O)OC)c2CC(C)C)c1CC(C)C [Compound 181, Dimethyl 5,5′-Dithiobis[2-(difluoromethyl)-4-(2-methylpropyl)-6-(trifluoromethyl)-3-pyridinecarboxylate]]
CETP [1]; four hours
  % Transfer of [3H]-CE from HDL to LDL and VLDL: 10.6%
  % Inhibition of CETP activity: 50.8%
CETP [1]; two hours
  % Transfer of [3H]-CE from HDL to LDL and VLDL: 4.7%
  % Inhibition of CETP activity: 64% and 63.6%
CETP [2]
  IC50: 1500 nM
CETP [3]; Days 5 and 8
  average reduction in CETP activity by ex vivo assay: 10%
CETP [3]; day 12
  CETP activity by ex vivo assay: return to vehicle control level
